Assay results taken from patent publication US20160066603A1, “FULVIC ACID AND DERIVATIVES AND METHODS OF PREPARATION AND USE” (EMPIRE TECHNOLOGY DEVELOPMENT LLC, priority 2013, published 2016).

Assay type: physicochemical
Protocol: The degradation products of Example 1, recovered after three hours of hydrolysis, were evaluated as antioxidants and thermal stabilizers for PVC, low density polyethylene (LDPE), and polyvinyl alcohol (PVA) to evaluate the anti-oxidation efficiency using thermal analysis techniques (DSC, TGA, and DTG). The thermooxidative enthalpy change from DSC curves (e.g. FIGS. 1-3) and the % of HCl loss as a function of temperature represent the stability of polyethylene and PVC respectively.
The mechanism of stabilizing PVC is based on capturing the evolved HCl from dehydrochlorination by the metal ions and the transition metal, accordingly deactivating the catalytic role of HCl in the thermal decomposition.

Stability compared with the PVC control polymer: more stable than the PVC control polymer
Substance: fulvic acid
